# Values joined by “and” are separate entries in the source; they are usually repeats but may differ in a detail not shown here. Equal entries are not always repeated. Where two headings read alike, the source gives them in different places.
# Key:
# NSCLC = experiment: Efficacy: disease control rate at 3 months; type: in vivo, human
# [1] = other studies; cited from earlier work
# clinical = conditions: human, in vivo
# [2] = Population pharmacokinetic modeling and covariate analysis; type: in vivo, human; conditions: for IIV V1, inter-individual variability on volume of distribution / IIVCL, inter-individual variability on clearance / IOV CL, inter-occasion variability on clearance: expressed as variance; for θKa, first-order absorption rate constant: fixed value; for clearance / Vd: human, plasma, oral; for Vd: θV1, volume of distribution
# [3] = human, in vivo
# [4] = test system: African Americans with NSCLC; experiment: Treatment-related toxicities; type: in vivo, human; conditions: for Dermatologic, other than rash: Any, grade 1–3: erythema, hyperpigmentation, pruritus, xerodermia; for Nausea, grade 1–3: only one grade three nausea was recorded
# NSCLC patients = conditions: 150 mg erlotinib, cited from earlier work
# [5] = Base model (n=26), Bootstrap median (95% CI)
# [6] = Base model (n=26), Estimate (CV %)
# [7] = Covariate model (LBM, n=26), Bootstrap median (95% CI)
# [8] = Covariate model (LBM, n=26), Estimate (CV %)
smiles,measurement,setting,value
C#Cc1cccc(Nc2ncnc3cc(OCCOC)c(OCCOC)cc23)c1 [erlotinib],PD,"NSCLC; All, n=52 evaluable patients",40 (78) Number of patients (%)
same,PR,"NSCLC; All, n=52 evaluable patients",1 (2) Number of patients (%)
same,1 year progression free rate,"NSCLC; All, n=55 treated patients",7%
same,1 year survival rate,"NSCLC; All, n=55 treated patients",28%
same,"Survival, Median","NSCLC; All, n=55 treated patients",5.3 months
same,"Survival, Range","NSCLC; All, n=55 treated patients",0.9–42.8 months
same,"TTP, Median (95% CI)","NSCLC; All, n=55 treated patients",2.6 (1.9– 2.8) months
same,"TTP, Range","NSCLC; All, n=55 treated patients",0.3–20.2 months
same,DCR at 3 months,"NSCLC; Arm A, n=26 evaluable patients",6 (23) Number of patients (%)
same,PD,"NSCLC; Arm A, n=26 evaluable patients",20 (77) Number of patients (%)
same,PR,"NSCLC; Arm A, n=26 evaluable patients",1 (4) Number of patients (%)
same,1 year progression free rate,"NSCLC; Arm A, n=28",10%
same,1 year survival rate,"NSCLC; Arm A, n=28",30%
same,"Survival, Median","NSCLC; Arm A, n=28",5.3 months
same,"Survival, Range","NSCLC; Arm A, n=28",0.9–37.4 months
same,"TTP, Median (95% CI)","NSCLC; Arm A, n=28",2.8 (2.5–3.1) months
same,"TTP, Range","NSCLC; Arm A, n=28",0.6–14.4 months
same,DCR at 3 months,"NSCLC; Arm B, n=26 evaluable patients",6 (23) Number of patients (%)
same,PD,"NSCLC; Arm B, n=26 evaluable patients",20 (77) Number of patients (%)
same,PR,"NSCLC; Arm B, n=26 evaluable patients",0 Number of patients (%)
same,1 year progression free rate,"NSCLC; Arm B, n=27",4%
same,1 year survival rate,"NSCLC; Arm B, n=27",26%
same,"Survival, Median","NSCLC; Arm B, n=27",5.2 months
same,"Survival, Range","NSCLC; Arm B, n=27",1.3–42.8 months
same,"TTP, Median (95% CI)","NSCLC; Arm B, n=27",2.4 (1.5–2.7) months
same,"TTP, Range","NSCLC; Arm B, n=27",0.3–20.2 months
same,range of population estimates for CL/F,[1],3.29 to 5.82 L/h
same,AUC(0-t),clinical; AUC0–24,12200 ± 6200 ng·h/mL
same,Tmax,clinical; Tmax,5 h
same,"θFM (fraction of erlotinib converted to OSI-420, FMET=1/1+exp(FM))",[2]; [5],"1.22 (0.47, 3.33)"
same,"IIV V1, inter-individual variability on volume of distribution",[2]; [5],"0.90 (0.40, 1.33)"
same,"IIVCL, inter-individual variability on clearance",[2]; [5],"0.24 (0.005, 0.44)"
same,"IOV CL, inter-occasion variability on clearance",[2]; [5],"0.58 (0.29, 0.89)"
same,"θFM (fraction of erlotinib converted to OSI-420, FMET=1/1+exp(FM))",[2]; [6],1.41 (12.8)
same,"IIV V1, inter-individual variability on volume of distribution",[2]; [6],0.92 (50.5)
same,"IIVCL, inter-individual variability on clearance",[2]; [6],0.06 (80.8)
same,"IOV CL, inter-occasion variability on clearance",[2]; [6],0.38 (55.5)
same,"θKa, first-order absorption rate constant",[2]; Base model (n=26),1.04 h⁻¹
same,"θFM (fraction of erlotinib converted to OSI-420, FMET=1/1+exp(FM))",[2]; [7],"1.03 (0.23, 3.49)"
same,"θLBM, lean body mass covariate term",[2]; [7],"1.75 (0.69, 3.08)"
same,"IIV V1, inter-individual variability on volume of distribution",[2]; [7],"0.92 (0.43, 1.37)"
same,"IIVCL, inter-individual variability on clearance",[2]; [7],"0.13 and 0.13 (0.001, 0.35)"
same,"IOV CL, inter-occasion variability on clearance",[2]; [7],"0.51 (0.15, 0.85)"
same,"θFM (fraction of erlotinib converted to OSI-420, FMET=1/1+exp(FM))",[2]; [8],0.88 (26.4)
same,"θLBM, lean body mass covariate term",[2]; [8],1.71 (27.8)
same,"IIV V1, inter-individual variability on volume of distribution",[2]; [8],0.95 (50.7)
same,"IIVCL, inter-individual variability on clearance",[2]; [8],0.02 (127.1)
same,"IOV CL, inter-occasion variability on clearance",[2]; [8],0.30 (67.9)
same,"θKa, first-order absorption rate constant","[2]; Covariate model (LBM, n=26)",1.04 h⁻¹
same,clearance,"[2]; both, θCL, erlotinib clearance, Base model (n=26), Bootstrap median (95% CI)",104 mL/min
same,clearance,"[2]; both, θCL, erlotinib clearance, Base model (n=26), Estimate (CV %)",104 mL/min
same,clearance,"[2]; both, θCL, erlotinib clearance, Covariate model (LBM, n=26), Bootstrap median (95% CI)",106 mL/min
same,clearance,"[2]; both, θCL, erlotinib clearance, Covariate model (LBM, n=26), Estimate (CV %)",107 mL/min
same,Vd,"[2]; both, Base model (n=26), Bootstrap median (95% CI)",275 L
same,Vd,"[2]; both, Base model (n=26), Estimate (CV %)",284 L
same,Vd,"[2]; both, Covariate model (LBM, n=26), Estimate (CV %)",283 L
same,clearance,"[2]; estimated erlotinib clearance from nonlinear mixed-effects modeling, this study",104 mL/min
same,AUC0–24,[3],17400 ± 8900 ng·h/mL
same,Tmax,[3],2.5 (0–10) hrs
same,AST elevation,"[4]; All, n=55",4 (7) no. of pts (%)
same,"Anorexia, grade 1–2","[4]; All, n=55",14 (25) no. of pts (%)
same,"Anorexia, grade 3","[4]; All, n=55",3 (5) no. of pts (%)
same,Any grade 3+ toxicity,"[4]; All, n=55",11 (20) no. of pts (%)
same,Any grade 4/5 toxicity,"[4]; All, n=55",1 (2) no. of pts (%)
same,"Dehydration, grade 1–2","[4]; All, n=55",1 (2) no. of pts (%)
same,"Dehydration, grade 3","[4]; All, n=55",2 (4) no. of pts (%)
same,Diarrhea: Any grade,"[4]; All, n=55",16 (29) no. of pts (%)
same,Diarrhea: Grade 1,"[4]; All, n=55",14 (25) no. of pts (%)
same,Diarrhea: Grade 2,"[4]; All, n=55",2 (4) no. of pts (%)
same,Diarrhea: Grade 3+,"[4]; All, n=55",0 no. of pts (%)
same,Hyperbilirubinemia,"[4]; All, n=55",1 (2) no. of pts (%)
same,"Pneumonitis, grade 3","[4]; All, n=55",1 (2) no. of pts (%)
same,"Rash, maximum grade: Any grade","[4]; All, n=55",38 (69) no. of pts (%)
same,"Rash, maximum grade: Grade 1","[4]; All, n=55",22 (40) no. of pts (%)
same,"Rash, maximum grade: Grade 2","[4]; All, n=55",12 (22) no. of pts (%)
same,"Rash, maximum grade: Grade 3","[4]; All, n=55",4 (7) no. of pts (%)
same,Xerostomia,"[4]; All, n=55",2 (4) no. of pts (%)
same,"Dermatologic, other than rash: Any, grade 1–3","[4]; All, n=55",16 (29) no. of pts (%)
same,"Nausea, grade 1–3","[4]; All, n=55",8 (15) no. of pts (%)
same,AST elevation,"[4]; Arm A (fixed dose), n=28",4 (14) no. of pts (%)
same,"Anorexia, grade 1–2","[4]; Arm A (fixed dose), n=28",5 (18) no. of pts (%)
same,"Anorexia, grade 3","[4]; Arm A (fixed dose), n=28",2 (7) no. of pts (%)
same,Any grade 3+ toxicity,"[4]; Arm A (fixed dose), n=28",5 (18) no. of pts (%)
same,Any grade 4/5 toxicity,"[4]; Arm A (fixed dose), n=28",1 (4) no. of pts (%)
same,"Dehydration, grade 1–2","[4]; Arm A (fixed dose), n=28",0 no. of pts (%)
same,"Dehydration, grade 3","[4]; Arm A (fixed dose), n=28",1 (4) no. of pts (%)
same,Diarrhea: Any grade,"[4]; Arm A (fixed dose), n=28",9 (32) no. of pts (%)
same,Diarrhea: Grade 1,"[4]; Arm A (fixed dose), n=28",7 (25) no. of pts (%)
same,Diarrhea: Grade 2,"[4]; Arm A (fixed dose), n=28",2 (7) no. of pts (%)
same,Diarrhea: Grade 3+,"[4]; Arm A (fixed dose), n=28",0 no. of pts (%)
same,Hyperbilirubinemia,"[4]; Arm A (fixed dose), n=28",0 no. of pts (%)
same,"Pneumonitis, grade 3","[4]; Arm A (fixed dose), n=28",1 (4) no. of pts (%)
same,"Rash, maximum grade: Any grade","[4]; Arm A (fixed dose), n=28",19 (68) no. of pts (%)
same,"Rash, maximum grade: Grade 1","[4]; Arm A (fixed dose), n=28",12 (43) no. of pts (%)
same,"Rash, maximum grade: Grade 2","[4]; Arm A (fixed dose), n=28",7 (25) no. of pts (%)
same,"Rash, maximum grade: Grade 3","[4]; Arm A (fixed dose), n=28",0 no. of pts (%)
same,Xerostomia,"[4]; Arm A (fixed dose), n=28",0 no. of pts (%)
same,"Dermatologic, other than rash: Any, grade 1–3","[4]; Arm A (fixed dose), n=28",7 (25) no. of pts (%)
same,"Nausea, grade 1–3","[4]; Arm A (fixed dose), n=28",2 (7) no. of pts (%)
same,AST elevation,"[4]; Arm B (dose adjusted), n=27",0 no. of pts (%)
same,"Anorexia, grade 1–2","[4]; Arm B (dose adjusted), n=27",9 (33) no. of pts (%)
same,"Anorexia, grade 3","[4]; Arm B (dose adjusted), n=27",1 (4) no. of pts (%)
same,Any grade 3+ toxicity,"[4]; Arm B (dose adjusted), n=27",6 (22) no. of pts (%)
same,Any grade 4/5 toxicity,"[4]; Arm B (dose adjusted), n=27",0 no. of pts (%)
same,"Dehydration, grade 1–2","[4]; Arm B (dose adjusted), n=27",1 (4) no. of pts (%)
same,"Dehydration, grade 3","[4]; Arm B (dose adjusted), n=27",1 (4) no. of pts (%)
same,Diarrhea: Any grade,"[4]; Arm B (dose adjusted), n=27",7 (26) no. of pts (%)
same,Diarrhea: Grade 1,"[4]; Arm B (dose adjusted), n=27",7 (26) no. of pts (%)
same,Diarrhea: Grade 2,"[4]; Arm B (dose adjusted), n=27",0 no. of pts (%)
same,Diarrhea: Grade 3+,"[4]; Arm B (dose adjusted), n=27",0 no. of pts (%)
same,Hyperbilirubinemia,"[4]; Arm B (dose adjusted), n=27",1 (4) no. of pts (%)
same,"Pneumonitis, grade 3","[4]; Arm B (dose adjusted), n=27",0 no. of pts (%)
same,"Rash, maximum grade: Any grade","[4]; Arm B (dose adjusted), n=27",19 (70) no. of pts (%)
same,"Rash, maximum grade: Grade 1","[4]; Arm B (dose adjusted), n=27",10 (37) no. of pts (%)
same,"Rash, maximum grade: Grade 2","[4]; Arm B (dose adjusted), n=27",5 (19) no. of pts (%)
same,"Rash, maximum grade: Grade 3","[4]; Arm B (dose adjusted), n=27",4 (15) no. of pts (%)
same,Xerostomia,"[4]; Arm B (dose adjusted), n=27",2 (7) no. of pts (%)
same,"Dermatologic, other than rash: Any, grade 1–3","[4]; Arm B (dose adjusted), n=27",9 (33) no. of pts (%)
same,"Nausea, grade 1–3","[4]; Arm B (dose adjusted), n=27",6 (22) no. of pts (%)
same,patients who experienced rash during the first cycle,"[4]; Arm B, of the 27 enrolled patients",18 patients
same,"diarrhea, % of patients",[4]; all 55 treated patients,29%
same,dose reductions for toxicity,[4]; all 55 treated patients,no dose reductions for toxicity
same,"nausea, % of patients",[4]; all 55 treated patients,15%
same,patients who experienced any grade 3 toxicity,[4]; all 55 treated patients (11 patients),20%
same,dose reductions due to adverse events,NSCLC patients; 81 Caucasian NSCLC patients,14%
same,dose reductions due to adverse events,NSCLC patients; 1242 Asian NSCLC patients,23%

# From article PMC4180036 (Clinical pharmacology and therapeutics, 2014)
